Reference: patent US10875863B2, “RIPK2 inhibitors and method of treating cancer with same” (University Health Network, priority 2014, dated 2020)

What was measured:
[1] = test system: TNFα; assay: TNFα in dendritic cell culture supernatants by ELISA; assay type: cell-based, mouse; settings: supernatants from LPS ± MDP stimulation
Description: (§1) IL-12-yellow fluorescent protein (YFP) reporter mouse bone marrow dendritic cells were stimulated for 24 hours with 0.3 ng/ml LPS±1 μg/ml MDP (i.e., NOD2 agonist) in the presence of Example A3 (FIG. 2A). IL-12-yellow fluorescent protein (YFP) reporter mouse bone marrow dendritic cells were stimulated for 24 hours with 0.3 μg/ml Pam3Cys±1 μg/ml MDP (i.e., NOD2 agonist) in the presence of Example A3 (FIG. 2B). […] Data are represented as the mean±SEM of triplicate measurements. Levels of IL-12 p70 (FIG. 2C, left panel) and TNFα (FIG. 2C, right panel) in the cell culture supernatants from A were measured by ELISA techniques with commercially available kits. […] Data are represented as the mean±SEM of triplicate measurements.

[2] = test system: HCT116 xenografts; assay: In vivo response of HCT116 xenografts, tolerability and body weight; set-up: species or system CB-17 SCID mice; settings: SCID mice with HCT116 xenografts
Description: HCT116 colon cancer cells were purchased from ATCC (American Type Culture Collections) and cultured in DMEM (Dulbecco's Modified eagle medium—purchased from GIBCO) supplemented with 10% fetal calf serum. Five million cells were injected subcutaneously in the right flank of 6-8 week old male CB-17 SCID mice. When the mean tumor volume reached 80-120 mm^3, mice were randomized into 5 groups (n=5) and received either vehicle (10% NMP, 40% PEG, 50% H2O) or compound at the doses indicated.
Tumor volume and body weight were measured three times weekly. Tumor volume was calculated by the following formula: x^2y/2. Percent tumor growth inhibition after initiation of treatment with compound was calculated by: TGI=100×1−(tumor volumefinal−tumor volumeinitial for compound treated group)/(tumor volumefinal−tumor volumeinitial for […] control group).

[3] = test system: IL-12 p70; assay: IL-12 p70 in dendritic cell culture supernatants by ELISA; assay type: cell-based, mouse; settings: supernatants from LPS ± MDP stimulation
Description: as §1

[4] = test system: IL-12-yellow fluorescent protein (YFP) reporter mouse bone marrow dendritic cells; assay: IL-12-YFP reporter dendritic cells, flow cytometric analysis; assay type: cell-based; settings: 24 hours, LPS or Pam3Cys ± 1 μg/ml MDP
Description: as §1

## Cc1ccccc1-c1cc2nc(Nc3cccc(N4CCOCC4)c3)ncc2[nH]1 [Example A3, N-(3-morpholinophenyl)-6-(o-tolyl)-5H-pyrrolo[3,2-d]pyrimidin-2-amine]
[1]
  levels of TNFα in cell culture supernatants: dose-dependent reduction
[2]; 92 mg/kg Q.D. p.o.
  mean body weight loss: 7.8%
[2]; Q.D. p.o., 18 days
  tolerability: well tolerated
[2]; treated arms versus control
  mean body weight loss in the treated arms compared to control: less than 6%
[3]
  levels of IL-12 p70 in cell culture supernatants: dose-dependent reduction
[4]
  cell viability as assessed by 7AAD exclusion: no measurable effect
  percentage of YFP positive cells (IL-12 positive cells): minimal effect
[4]; effect MDP-dependent
  mean fluorescence intensity YFP (amount of IL-12): dose-dependent reduction
